{"source": "PubChem BioAssay AID1963975", "about": "(Molecular Pharmacology Branch, DTP, NCI, 2024);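 note: spheroids exposed to agents for 7 days before viability read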;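 for viability, T/C: 100% = DMSO vehicle treated spheroids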", "test_system": "624824-186-R-J2-PDC multicell spheroids, viability", "assay": "Anticancer human tumor 624824-186-R-J2-PDC patient-derived colon adenocarcinoma cell line growth inhibition [PI3K]", "details": "for IC50: curve of first compound; for viability, T/C: stronger effect = lower value", "how_it_was_run": "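Viability of mixed-cell spheroids was determined after exposure to pairwise combinations, one partner being inavolisib, alpelisib, duvelisib or copanlisib. Highest tested concentration matched clinical Cmax where known and 10 microM where not, descending in half-log steps.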", "key": {"[1]": {"details": "second compound 0.00316 µM, first compound 0.000316 µM"}, "[2]": {"details": "second compound 0.00316 µM, first compound 0.001 µM"}, "[3]": {"details": "second compound 0.00316 µM, first compound 0.00316 µM"}, "[4]": {"details": "second compound 0.00316 µM, first compound 0.01 µM"}, "[5]": {"details": "second compound 0.00316 µM, first compound 0.0316 µM"}, "[6]": {"details": "second compound 0.00316 µM, first compound 0.1 µM"}, "[7]": {"details": "second compound 0.01 µM, first compound 0.000316 µM"}, "[8]": {"details": "second compound 0.01 µM, first compound 0.001 µM"}, "[9]": {"details": "second compound 0.01 µM, first compound 0.00316 µM"}, "[10]": {"details": "second compound 0.01 µM, first compound 0.01 µM"}, "[11]": {"details": "second compound 0.01 µM, first compound 0.0316 µM"}, "[12]": {"details": "second compound 0.01 µM, first compound 0.1 µM"}, "[13]": {"details": "second compound 0.0316 µM, first compound 0.000316 µM"}, "[14]": {"details": "second compound 0.0316 µM, first compound 0.001 µM"}, "[15]": {"details": "second compound 0.0316 µM, first compound 0.00316 µM"}, "[16]": {"details": "second compound 0.0316 µM, first compound 0.01 µM"}, "[17]": {"details": "second compound 0.0316 µM, first compound 0.0316 µM"}, "[18]": {"details": "second compound 0.0316 µM, first compound 0.1 µM"}, "[19]": {"details": "second compound 0.1 µM, first compound 0.000316 µM"}, "[20]": {"details": "second compound 0.1 µM, first compound 0.001 µM"}, "[21]": {"details": "second compound 0.1 µM, first compound 0.00316 µM"}, "[22]": {"details": "second compound 0.1 µM, first compound 0.01 µM"}, "[23]": {"details": "second compound 0.1 µM, first compound 0.0316 µM"}, "[24]": {"details": "second compound 0.1 µM, first compound 0.1 µM"}, "[25]": {"details": "second compound 0.316 µM, first compound 0.000316 µM"}, "[26]": {"details": "second compound 0.316 µM, first compound 0.001 µM"}, "[27]": {"details": "second compound 0.316 µM, first compound 0.00316 µM"}, "[28]": {"details": "second compound 0.316 µM, first compound 0.01 µM"}, "[29]": {"details": "second compound 0.316 µM, first compound 0.0316 µM"}, "[30]": {"details": "second compound 0.316 µM, first compound 0.1 µM"}, "[31]": {"details": "second compound 1 µM, first compound 0.000316 µM"}, "[32]": {"details": "second compound 1 µM, first compound 0.001 µM"}, "[33]": {"details": "second compound 1 µM, first compound 0.00316 µM"}, "[34]": {"details": "second compound 1 µM, first compound 0.01 µM"}, "[35]": {"details": "second compound 1 µM, first compound 0.0316 µM"}, "[36]": {"details": "second compound 1 µM, first compound 0.1 µM"}}, "data": [{"smiles": "CC(=O)c1c(C)c2cnc(Nc3ccc(N4CCNCC4)cn3)nc2n(C2CCCC2)c1=O", "note": "+ COc1c(OCCCN2CCOCC2)ccc2c3n(c(=NC(=O)c4cnc(N)nc4)nc12)CCN3", "values": [{"measurement": "IC50", "setting": "second compound 0.00316 µM", "value": "> 100", "unit": "nM"}, {"measurement": "IC50", "setting": "second compound 0.01 µM", "value": "> 100", "unit": "nM"}, {"measurement": "IC50", "setting": "second compound 0.0316 µM", "value": "> 100", "unit": "nM"}, {"measurement": "IC50", "setting": "second compound 0.1 µM", "value": "> 100", "unit": "nM"}, {"measurement": "IC50", "setting": "second compound 0.316 µM", "value": "> 100", "unit": "nM"}, {"measurement": "IC50", "setting": "second compound 1 µM", "value": "> 100", "unit": "nM"}, {"measurement": "viability, T/C", "setting": "[1]", "value": 95.5, "unit": "%"}, {"measurement": "viability, T/C", "setting": "[2]", "value": 94.7, "unit": "%"}, {"measurement": "viability, T/C", "setting": "[3]", "value": 90.6, "unit": "%"}, {"measurement": "viability, T/C", "setting": "[4]", "value": 98.7, "unit": "%"}, {"measurement": "viability, T/C", "setting": "[5]", "value": 105, "unit": "%"}, {"measurement": "viability, T/C", "setting": "[6]", "value": 84, "unit": "%"}, {"measurement": "viability, T/C", "setting": "[7]", "value": 104, "unit": "%"}, {"measurement": "viability, T/C", "setting": "[8]", "value": 90, "unit": "%"}, {"measurement": "viability, T/C", "setting": "[9]", "value": 86.7, "unit": "%"}, {"measurement": "viability, T/C", "setting": "[10]", "value": 94.3, "unit": "%"}, {"measurement": "viability, T/C", "setting": "[11]", "value": 97.6, "unit": "%"}, {"measurement": "viability, T/C", "setting": "[12]", "value": 96.5, "unit": "%"}, {"measurement": "viability, T/C", "setting": "[13]", "value": 82.7, "unit": "%"}, {"measurement": "viability, T/C", "setting": "[14]", "value": 94.4, "unit": "%"}, {"measurement": "viability, T/C", "setting": "[15]", "value": 91.4, "unit": "%"}, {"measurement": "viability, T/C", "setting": "[16]", "value": 86.7, "unit": "%"}, {"measurement": "viability, T/C", "setting": "[17]", "value": 89, "unit": "%"}, {"measurement": "viability, T/C", "setting": "[18]", "value": 69.2, "unit": "%"}, {"measurement": "viability, T/C", "setting": "[19]", "value": 65.9, "unit": "%"}, {"measurement": "viability, T/C", "setting": "[20]", "value": 77.2, "unit": "%"}, {"measurement": "viability, T/C", "setting": "[21]", "value": 78.2, "unit": "%"}, {"measurement": "viability, T/C", "setting": "[22]", "value": 70.8, "unit": "%"}, {"measurement": "viability, T/C", "setting": "[23]", "value": 70, "unit": "%"}, {"measurement": "viability, T/C", "setting": "[24]", "value": 55.6, "unit": "%"}, {"measurement": "viability, T/C", "setting": "[25]", "value": 61.4, "unit": "%"}, {"measurement": "viability, T/C", "setting": "[26]", "value": 68.6, "unit": "%"}, {"measurement": "viability, T/C", "setting": "[27]", "value": 61.4, "unit": "%"}, {"measurement": "viability, T/C", "setting": "[28]", "value": 57.9, "unit": "%"}, {"measurement": "viability, T/C", "setting": "[29]", "value": 66.9, "unit": "%"}, {"measurement": "viability, T/C", "setting": "[30]", "value": 53.4, "unit": "%"}, {"measurement": "viability, T/C", "setting": "[31]", "value": 59, "unit": "%"}, {"measurement": "viability, T/C", "setting": "[32]", "value": 58, "unit": "%"}, {"measurement": "viability, T/C", "setting": "[33]", "value": 58.7, "unit": "%"}, {"measurement": "viability, T/C", "setting": "[34]", "value": 58.4, "unit": "%"}, {"measurement": "viability, T/C", "setting": "[35]", "value": 62.9, "unit": "%"}, {"measurement": "viability, T/C", "setting": "[36]", "value": 55.7, "unit": "%"}]}, {"smiles": "CC(C)n1nc(-c2ccc3oc(N)nc3c2)c2c(N)ncnc21", "note": "+ COc1c(OCCCN2CCOCC2)ccc2c3n(c(=NC(=O)c4cnc(N)nc4)nc12)CCN3", "values": [{"measurement": "IC50", "setting": "second compound 0.00316 µM", "value": "> 100", "unit": "nM"}, {"measurement": "IC50", "setting": "second compound 0.01 µM", "value": "> 100", "unit": "nM"}, {"measurement": "IC50", "setting": "second compound 0.0316 µM", "value": "> 100", "unit": "nM"}, {"measurement": "IC50", "setting": "second compound 0.1 µM", "value": "> 100", "unit": "nM"}, {"measurement": "IC50", "setting": "second compound 0.316 µM", "value": 75.3, "unit": "nM"}, {"measurement": "IC50", "setting": "second compound 1 µM", "value": "> 100", "unit": "nM"}, {"measurement": "viability, T/C", "setting": "[1]", "value": 82.8, "unit": "%"}, {"measurement": "viability, T/C", "setting": "[2]", "value": 95.9, "unit": "%"}, {"measurement": "viability, T/C", "setting": "[3]", "value": 82.4, "unit": "%"}, {"measurement": "viability, T/C", "setting": "[4]", "value": 99.5, "unit": "%"}, {"measurement": "viability, T/C", "setting": "[5]", "value": 84, "unit": "%"}, {"measurement": "viability, T/C", "setting": "[6]", "value": 70.1, "unit": "%"}, {"measurement": "viability, T/C", "setting": "[7]", "value": 104, "unit": "%"}, {"measurement": "viability, T/C", "setting": "[8]", "value": 83.2, "unit": "%"}, {"measurement": "viability, T/C", "setting": "[9]", "value": 93.2, "unit": "%"}, {"measurement": "viability, T/C", "setting": "[10]", "value": 86.7, "unit": "%"}, {"measurement": "viability, T/C", "setting": "[11]", "value": 80.7, "unit": "%"}, {"measurement": "viability, T/C", "setting": "[12]", "value": 68.9, "unit": "%"}, {"measurement": "viability, T/C", "setting": "[13]", "value": 90.3, "unit": "%"}, {"measurement": "viability, T/C", "setting": "[14]", "value": 78.8, "unit": "%"}, {"measurement": "viability, T/C", "setting": "[15]", "value": 81.4, "unit": "%"}, {"measurement": "viability, T/C", "setting": "[16]", "value": 69.6, "unit": "%"}, {"measurement": "viability, T/C", "setting": "[17]", "value": 69.9, "unit": "%"}, {"measurement": "viability, T/C", "setting": "[18]", "value": 54.5, "unit": "%"}, {"measurement": "viability, T/C", "setting": "[19]", "value": 70.1, "unit": "%"}, {"measurement": "viability, T/C", "setting": "[20]", "value": 77.3, "unit": "%"}, {"measurement": "viability, T/C", "setting": "[21]", "value": 58.5, "unit": "%"}, {"measurement": "viability, T/C", "setting": "[22]", "value": 57.3, "unit": "%"}, {"measurement": "viability, T/C", "setting": "[23]", "value": 58.3, "unit": "%"}, {"measurement": "viability, T/C", "setting": "[24]", "value": 49.7, "unit": "%"}, {"measurement": "viability, T/C", "setting": "[25]", "value": 70.6, "unit": "%"}, {"measurement": "viability, T/C", "setting": "[26]", "value": 60.7, "unit": "%"}, {"measurement": "viability, T/C", "setting": "[27]", "value": 60.7, "unit": "%"}, {"measurement": "viability, T/C", "setting": "[28]", "value": 59.1, "unit": "%"}, {"measurement": "viability, T/C", "setting": "[29]", "value": 53.7, "unit": "%"}, {"measurement": "viability, T/C", "setting": "[30]", "value": 47.8, "unit": "%"}, {"measurement": "viability, T/C", "setting": "[31]", "value": 64.6, "unit": "%"}, {"measurement": "viability, T/C", "setting": "[32]", "value": 52.7, "unit": "%"}, {"measurement": "viability, T/C", "setting": "[33]", "value": 55, "unit": "%"}, {"measurement": "viability, T/C", "setting": "[34]", "value": 61.2, "unit": "%"}, {"measurement": "viability, T/C", "setting": "[35]", "value": 56.1, "unit": "%"}, {"measurement": "viability, T/C", "setting": "[36]", "value": 52, "unit": "%"}]}]}
